According to patent US20240391940A1, “FUSED RING-CONTAINING COMPOUND, APPLICATION THEREOF, AND COMPOSITION CONTAINING SAME” (GenEros Biopharma Ltd., priority 2020, published 2024):
Where two headings read alike, the source gives them in different places.

Tested on: collagen-induced arthritis (CIA) mouse model
Conditions: for clinical score / body weight: Mean ± SEM

O=C(Cc1ccc2ncccc2c1)N1CCC(n2c(=O)n(COP(=O)([O-])[O-])c3cccc(C(F)(F)F)c32)CC1.[Na+].[Na+] [GEN1-284 salt, (2-Oxo-3-(1-(2-(quinolin-6-yl)acetyl)piperidin-4-yl)-4-(trifluoromethyl)-2,3-dihydro-1H-benzo[d]imidazol-1-yl)methyl disodium phosphate]
Day on which consistent significant inhibition of the score of arthritis began (CIA mice, GEN1-284s 50 mg/kg): 32 days
Histomorphological effect on arthritis (CIA mice, GEN1-284s 50 mg/kg): tendency to relieve arthritis in animals
Inhibition rate of clinical score curve AUC relative to vehicle control group (CIA mice, GEN1-284s 50 mg/kg): 56.9%
Pathology total score (CIA mice, GEN1-284s 50 mg/kg): lower than that of the vehicle control group
clinical score (CIA mice, GEN1-284s 50 mg/kg p.o. QD from day 28, day 21): 0.0 ± 0.00
clinical score (CIA mice, GEN1-284s 50 mg/kg p.o. QD from day 28, day 25): 0.3 ± 0.16
clinical score (CIA mice, GEN1-284s 50 mg/kg p.o. QD from day 28, day 28): 0.6 ± 0.26
clinical score (CIA mice, GEN1-284s 50 mg/kg p.o. QD from day 28, day 29): 0.8 ± 0.25
clinical score (CIA mice, GEN1-284s 50 mg/kg p.o. QD from day 28, day 32): 1.3 ± 0.31
clinical score (CIA mice, GEN1-284s 50 mg/kg p.o. QD from day 28, day 34): 1.8 ± 0.56
clinical score (CIA mice, GEN1-284s 50 mg/kg p.o. QD from day 28, day 36): 2.4 ± 0.84
clinical score (CIA mice, GEN1-284s 50 mg/kg p.o. QD from day 28, day 39): 2.9 ± 0.90
body weight (CIA mice, GEN1-284s 50 mg/kg, day 21): 20.64 ± 0.23
body weight (CIA mice, GEN1-284s 50 mg/kg, day 25): 20.73 ± 0.24
body weight (CIA mice, GEN1-284s 50 mg/kg, day 28): 20.65 ± 0.25
body weight (CIA mice, GEN1-284s 50 mg/kg, day 29): 20.49 ± 0.25
body weight (CIA mice, GEN1-284s 50 mg/kg, day 32): 19.66 ± 0.28
body weight (CIA mice, GEN1-284s 50 mg/kg, day 34): 20.41 ± 0.31
body weight (CIA mice, GEN1-284s 50 mg/kg, day 36): 20.54 ± 0.36
body weight (CIA mice, GEN1-284s 50 mg/kg, day 39): 20.48 ± 0.27
body weight (CIA mice, GEN1-284s 50 mg/kg, day 41): 20.95 ± 0.20
Day on which consistent significant inhibition of the score of arthritis began (CIA mice, GEN1-284s 150 mg/kg): 34 days
clinical score (CIA mice, GEN1-284s 150 mg/kg p.o. QD from day 28, day 21): 0.0 ± 0.00
clinical score (CIA mice, GEN1-284s 150 mg/kg p.o. QD from day 28, day 25): 0.0 ± 0.00
clinical score (CIA mice, GEN1-284s 150 mg/kg p.o. QD from day 28, day 28): 0.6 ± 0.26
clinical score (CIA mice, GEN1-284s 150 mg/kg p.o. QD from day 28, day 29): 0.9 ± 0.40
clinical score (CIA mice, GEN1-284s 150 mg/kg p.o. QD from day 28, day 32): 2.0 ± 0.42
clinical score (CIA mice, GEN1-284s 150 mg/kg p.o. QD from day 28, day 34): 2.5 ± 0.57
clinical score (CIA mice, GEN1-284s 150 mg/kg p.o. QD from day 28, day 36): 3.4 ± 0.78
clinical score (CIA mice, GEN1-284s 150 mg/kg p.o. QD from day 28, day 39): 3.9 ± 0.93
body weight (CIA mice, GEN1-284s 150 mg/kg, day 21): 20.40 ± 0.23
body weight (CIA mice, GEN1-284s 150 mg/kg, day 25): 20.53 ± 0.27
body weight (CIA mice, GEN1-284s 150 mg/kg, day 28): 20.64 ± 0.24
body weight (CIA mice, GEN1-284s 150 mg/kg, day 29): 20.48 ± 0.29
body weight (CIA mice, GEN1-284s 150 mg/kg, day 32): 20.06 ± 0.25
body weight (CIA mice, GEN1-284s 150 mg/kg, day 34): 20.41 ± 0.41
body weight (CIA mice, GEN1-284s 150 mg/kg, day 36): 20.70 ± 0.35
body weight (CIA mice, GEN1-284s 150 mg/kg, day 39): 20.40 ± 0.29
body weight (CIA mice, GEN1-284s 150 mg/kg, day 41): 20.91 ± 0.26
clinical score (CIA mice, GEN1-284s 300 mg/kg group (500 mg/kg 5 days, then 300 mg/kg) p.o. QD from day 28, day 21): 0.0 ± 0.00
clinical score (CIA mice, GEN1-284s 300 mg/kg group (500 mg/kg 5 days, then 300 mg/kg) p.o. QD from day 28, day 25): 0.0 ± 0.00
clinical score (CIA mice, GEN1-284s 300 mg/kg group (500 mg/kg 5 days, then 300 mg/kg) p.o. QD from day 28, day 28): 0.6 ± 0.26
clinical score (CIA mice, GEN1-284s 300 mg/kg group (500 mg/kg 5 days, then 300 mg/kg) p.o. QD from day 28, day 29): 0.6 ± 0.24
clinical score (CIA mice, GEN1-284s 300 mg/kg group (500 mg/kg 5 days, then 300 mg/kg) p.o. QD from day 28, day 32): 2.0 ± 0.58
clinical score (CIA mice, GEN1-284s 300 mg/kg group (500 mg/kg 5 days, then 300 mg/kg) p.o. QD from day 28, day 34): 2.5 ± 0.87
clinical score (CIA mice, GEN1-284s 300 mg/kg group (500 mg/kg 5 days, then 300 mg/kg) p.o. QD from day 28, day 36): 4.0 ± 1.15
clinical score (CIA mice, GEN1-284s 300 mg/kg group (500 mg/kg 5 days, then 300 mg/kg) p.o. QD from day 28, day 39): 5.5 ± 1.19
clinical score (CIA mice, GEN1-284s 300 mg/kg group (500 mg/kg 5 days, then 300 mg/kg) p.o. QD from day 28, day 41): 6.3 ± 1.38
body weight (CIA mice, GEN1-284s 300 mg/kg group (500 mg/kg 5 days, then 300 mg/kg), day 21): 20.18 ± 0.29
body weight (CIA mice, GEN1-284s 300 mg/kg group (500 mg/kg 5 days, then 300 mg/kg), day 25): 20.43 ± 0.27
body weight (CIA mice, GEN1-284s 300 mg/kg group (500 mg/kg 5 days, then 300 mg/kg), day 28): 20.65 ± 0.34
body weight (CIA mice, GEN1-284s 300 mg/kg group (500 mg/kg 5 days, then 300 mg/kg), day 29): 20.08 ± 0.49
body weight (CIA mice, GEN1-284s 300 mg/kg group (500 mg/kg 5 days, then 300 mg/kg), day 32): 19.48 ± 1.02
body weight (CIA mice, GEN1-284s 300 mg/kg group (500 mg/kg 5 days, then 300 mg/kg), day 34): 19.30 ± 1.05
body weight (CIA mice, GEN1-284s 300 mg/kg group (500 mg/kg 5 days, then 300 mg/kg), day 36): 19.60 ± 0.81
body weight (CIA mice, GEN1-284s 300 mg/kg group (500 mg/kg 5 days, then 300 mg/kg), day 39): 19.80 ± 0.96
body weight (CIA mice, GEN1-284s 300 mg/kg group (500 mg/kg 5 days, then 300 mg/kg), day 41): 20.30 ± 0.78
Mortality (CIA mice, GEN1-284s 500 mg/kg): death was caused among the mice
Tolerance (CIA mice, GEN1-284s 50, 150 and 300 mg/kg): good tolerance
Number of mice that died (high-dose group (500 mg/kg), day 32): On day 32, 1 mouse in the high-dose group died, and the dissection results showed that: the major abnormality was in the lungs, and no obvious abnormality was found in other organs.
